Measured values as given in the supplement of paper PMC11061612.

Columns and labels:
Assay in all cases: Bliss excess, mean over the matrix (fraction); higher = more synergy
[1] = test system: NCI-H358 (Lung Adenocarcinoma)
How it was run: (§1)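 Cell lines grown in DMEM/F12 or RPMI with 10% FBS were plated in 1536-well plates and held 24 hours at 37°C, 5% CO2 before 72 hours of exposure to two-drug dose matrices, with DMSO typically at 0.2%. CellTiter-Glo 2.0 luminescence gave viability, which was converted to inhibition. Vehicle wells were set to 0 and blank wells to 1. Combination Emax is the second-highest inhibition in the matrix, and Bliss excess is the observed combination effect minus the expected EA + EB − EA·EB, where EA and EB are the single-agent effects.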

[2] = test system: AMO-1 (Plasma Cell Myeloma)
How it was run: as §1

ACHN (Kidney Carcinoma) = test system: ACHN (Kidney Carcinoma)
How it was run: as §1

TK10 (Kidney Carcinoma) = test system: TK10 (Kidney Carcinoma)
How it was run: as §1

[3] = test system: RF-48 (B-Cell Non-Hodgkin's Lymphoma)
How it was run: as §1

[4] = test system: PANC-04-03 (Pancreatic Carcinoma)
How it was run: as §1

NB69 (Neuroblastoma) = test system: NB69 (Neuroblastoma)
How it was run: as §1

[5] = test system: SW13 (Other Solid Carcinomas)
How it was run: as §1

UACC-62 (Melanoma) = test system: UACC-62 (Melanoma)
How it was run: as §1

[6] = test system: Ca9-22 (Head and Neck Carcinoma)
How it was run: as §1

SMILES	Bliss excess [1]	Bliss excess [2]	Bliss excess (ACHN (Kidney Carcinoma))	Bliss excess (TK10 (Kidney Carcinoma))	Bliss excess [3]	Bliss excess [4]	Bliss excess (NB69 (Neuroblastoma))	Bliss excess [5]	Bliss excess (UACC-62 (Melanoma))	Bliss excess [6]
C=CCn1c(=O)c2cnc(Nc3ccc(N4CCN(C)CC4)cc3)nc2n1-c1cccc(C(C)(C)O)n1 [AZD1775] + CCc1c2c(nc3ccc(O)cc13)-c1cc3c(c(=O)n1C2)COC(=O)[C@]3(O)CC [SN-38] (first compound max 1 µM, partner max 0.3 µM)	-0.0162	-0.052	-0.0634	-0.0717	-0.0404	-0.0594	0.0239	0.0119	-0.0497	0.0045
C=CCn1c(=O)c2cnc(Nc3ccc(N4CCN(C)CC4)cc3)nc2n1-c1cccc(C(C)(C)O)n1 [AZD1775] + Nc1ccn([C@@H]2O[C@H](CO)[C@@H](O)C2(F)F)c(=O)n1 [Gemcitabine] (first compound max 1 µM, partner max 0.3 µM)	-0.0113	0.157	-0.0338	-0.0299	-0.005	-0.0346	0.0419	0.0385	0.0399	0.0821
CN(CCO)CC[C@H](CSc1ccccc1)Nc1ccc(S(=O)(=O)NC(=O)c2ccc(N3CCC([C@@H](O)c4ccccc4-c4ccc(Cl)cc4)CC3)cc2)cc1S(=O)(=O)C(F)(F)F [AZD4320] + CS(=O)(=O)CCNCc1ccc(-c2ccc3ncnc(Nc4ccc(OCc5cccc(F)c5)c(Cl)c4)c3c2)o1 [Lapatinib] (first compound max 1 µM, 7x7, partner max 10 µM)		0.0695	-0.011	-0.0942	-0.0184	-0.0143	0.0465	0.0051	-0.0143	0.0479
Cc1c2c(nn1C)CSCc1cc(n(C)n1)CSc1cc(c3ccccc3c1)OCCCc1c(C(=O)O)n(C)c3c-2c(Cl)ccc13 [AZD5991] + CC(=O)O[C@H]1C(=O)[C@@]2(C)[C@H]([C@H](OC(=O)c3ccccc3)[C@]3(O)C[C@H](OC(=O)[C@H](O)[C@@H](NC(=O)c4ccccc4)c4ccccc4)C(C)=C1C3(C)C)[C@]1(OC(C)=O)CO[C@@H]1C[C@@H]2O [Paclitaxel] (first compound max 1 µM, 7x7, partner max 3 µM)	-0.0405	0.0096	-0.0038	-0.0402	-0.0407	0.0111	0.027	0.0376	0.115	0.0065
Cc1c2c(nn1C)CSCc1cc(n(C)n1)CSc1cc(c3ccccc3c1)OCCCc1c(C(=O)O)n(C)c3c-2c(Cl)ccc13 [AZD5991] + CS(=O)(=O)CCNCc1ccc(-c2ccc3ncnc(Nc4ccc(OCc5cccc(F)c5)c(Cl)c4)c3c2)o1 [Lapatinib] (first compound max 1 µM, 7x7, partner max 10 µM)	-0.0019	0.0149	0.0028	-0.0567	-0.0917	-0.0275	0.021	0.0568	-0.0376	0.0614
Cc1c2c(nn1C)CSCc1cc(n(C)n1)CSc1cc(c3ccccc3c1)OCCCc1c(C(=O)O)n(C)c3c-2c(Cl)ccc13 [AZD5991] + Nc1ccn([C@@H]2O[C@H](CO)[C@@H](O)C2(F)F)c(=O)n1 [Gemcitabine] (first compound max 1 µM, 7x7, partner max 0.3 µM)	-0.0276	0.0042	-0.0455	-0.0198	0.0014	-0.0643	0.0037	0.038	-0.0219	0.0042
C[C@@H]1COCCN1c1cc(C2([S@](C)(=N)=O)CC2)nc(-c2ccnc3[nH]ccc23)n1 [AZD6738] + C1CC(C1)(C(=O)[O-])C(=O)[O-].N.N.[Pt+2] [Carboplatin] (first compound max 10 µM, 7x7, partner max 10 µM)	-0.091	0.0025	-0.034	-0.0837	-0.0788	-0.0682	-0.0502	-0.0051	-0.0289	-0.0479
C[C@@H]1COCCN1c1cc(C2([S@](C)(=N)=O)CC2)nc(-c2ccnc3[nH]ccc23)n1 [AZD6738] + Nc1ccn([C@@H]2O[C@H](CO)[C@@H](O)C2(F)F)c(=O)n1 [Gemcitabine] (first compound max 10 µM, 7x7, partner max 0.3 µM)	0.07	0.0048	0.0003	-0.0417	0.0277	-0.0244	0.0147	0.0493	0.0114	0.0536
C[C@@H](Nc1cc(F)cc(F)c1)c1cc(C(=O)N(C)C)cc2c(=O)cc(N3CCOCC3)oc12 [AZD8186] + C1CN(CCC1(C(=O)N[C@@H](CCO)C2=CC=C(C=C2)Cl)N)C3=NC=NC4=C3C=CN4 [AZD5363] (first compound max 10 µM, 7x7, partner max 10 µM)	-0.0597	0.0309	0.04	-0.0661	-0.033	-0.0712	0.0248	0.0092	-0.0382	-0.0508
C[C@@H](Nc1cc(F)cc(F)c1)c1cc(C(=O)N(C)C)cc2c(=O)cc(N3CCOCC3)oc12 [AZD8186] + CC(=O)c1c(C)c2cnc(Nc3ccc(N4CCNCC4)cn3)nc2n(C2CCCC2)c1=O [Palbociclib] (first compound max 10 µM, 7x7, partner max 10 µM)	-0.0167	0.126	0.0335	-0.0069	0.0054	0.0107	-0.0111	0.044	0.0303	0.021
C[C@@H](Oc1cc(-c2cnn(C3CCNCC3)c2)cnc1N)c1c(Cl)ccc(F)c1Cl [Crizotinib] + CC1=C(C(=CC=C1)Cl)NC(=O)C2=CN=C(S2)NC3=CC(=NC(=N3)C)N4CCN(CC4)CCO [Dasatinib] (first compound max 10 µM, 7x7, partner max 2 µM)	-0.0813	-0.0368	0.0041	0.0333	-0.119	-0.0683	0.0051	-0.0173	-0.0656	0.0635
C[C@@H](Oc1cc(-c2cnn(C3CCNCC3)c2)cnc1N)c1c(Cl)ccc(F)c1Cl [Crizotinib] + Cn1cnc2c(F)c(Nc3ccc(Br)cc3Cl)c(C(=O)NOCCO)cc21 [Selumetinib] (first compound max 10 µM, 7x7, partner max 10 µM)	-0.106	0.0122	0.0277	-0.0705	-0.0548	-0.0194	-0.0283	-0.0324	-0.0229	-0.0286
CS(=O)(=O)CCNCc1ccc(-c2ccc3ncnc(Nc4ccc(OCc5cccc(F)c5)c(Cl)c4)c3c2)o1 [Lapatinib] + Cn1cnc2c(F)c(Nc3ccc(Br)cc3Cl)c(C(=O)NOCCO)cc21 [Selumetinib] (first compound max 10 µM, 7x7, partner max 10 µM)	-0.0044	0.0408	0.0251	-0.008	-0.0137	0.0145	-0.0397	0.0429	-0.0119	0.0498
O=C(c1cc(Cc2n[nH]c(=O)c3ccccc23)ccc1F)N1CCN(C(=O)C2CC2)CC1 [Olaparib] + CC1(C)CCC(CN2CCN(c3ccc(C(=O)NS(=O)(=O)c4ccc(NCC5CCOCC5)c([N+](=O)[O-])c4)c(Oc4cnc5[nH]ccc5c4)c3)CC2)=C(c2ccc(Cl)cc2)C1 [Venetoclax] (first compound max 10 µM, 7x7, partner max 1 µM)	-0.054	-0.0074	-0.0214	-0.0727	0.118	-0.0318	0.067	-0.0309	-0.007	0.0323
O=C(c1cc(Cc2n[nH]c(=O)c3ccccc23)ccc1F)N1CCN(C(=O)C2CC2)CC1 [Olaparib] + CN(CC[C@H](CSC1=CC=CC=C1)NC2=C(C=C(C=C2)S(=O)(=O)NC(=O)C3=CC=C(C=C3)N4CCC(CC4)[C@H](C5=CC=CC=C5C6=CC=C(C=C6)Cl)O)S(=O)(=O)C(F)(F)F)CCO [AZD4320] (first compound max 10 µM, 7x7, partner max 1 µM)	-0.0383	-0.0111	-0.0164	-0.0439	0.0454	-0.0555	0.0663	-0.0566	-0.0105	0.006
O=C(c1cc(Cc2n[nH]c(=O)c3ccccc23)ccc1F)N1CCN(C(=O)C2CC2)CC1 [Olaparib] + COc1nnc2ccc(N3CCC(c4ccc(OCCN5CCN(C)C(=O)[C@H]5C)cc4)CC3)nn12 [AZD5153] (first compound max 10 µM, 7x7, partner max 1 µM)	-0.026	-0.0334	-0.0367	-0.0301	-0.0374	-0.0698	0.0035	-0.0183	0.0387	-0.0495
O=C(c1cc(Cc2n[nH]c(=O)c3ccccc23)ccc1F)N1CCN(C(=O)C2CC2)CC1 [Olaparib] + Cc1c2c(nn1C)CSCc1cc(n(C)n1)CSc1cc(c3ccccc3c1)OCCCc1c(C(=O)O)n(C)c3c-2c(Cl)ccc13 [AZD5991] (first compound max 10 µM, 7x7, partner max 1 µM)	-0.0513	-0.0124	-0.0218	-0.0699	-0.108	-0.0554	-0.0042	0.0104	-0.0089	0.0247
Cc1nc(-c2cn3c(n2)-c2ccc(-c4cnn(C(C)(C)C(N)=O)c4)cc2OCC3)n(C(C)C)n1 [Taselisib] + O=C(Nc1ccc2[nH]nc(-c3ccncc3)c2c1)[C@@H]1CCN(CC(=O)N2CCN(c3ccc(-c4ncccn4)cc3)CC2)C1 [SCH772984] (first compound max 10 µM, 7x7, partner max 5 µM)	0.0402	0.133	0.0219	-0.008	0.102	0.0934	-0.0509	0.334	-0.035	0.116
CC1(C)CCC(CN2CCN(c3ccc(C(=O)NS(=O)(=O)c4ccc(NCC5CCOCC5)c([N+](=O)[O-])c4)c(Oc4cnc5[nH]ccc5c4)c3)CC2)=C(c2ccc(Cl)cc2)C1 [Venetoclax] + CS(=O)(=O)CCNCc1ccc(-c2ccc3ncnc(Nc4ccc(OCc5cccc(F)c5)c(Cl)c4)c3c2)o1 [Lapatinib] (first compound max 1 µM, 7x7, partner max 10 µM)	-0.0321	0.0614	-0.0198	-0.0141	0.0123	-0.0396	0.0877	-0.0672	-0.0044	0.0232
